Measurements taken from patent publication US20020115669A1 (published 2002).

melting point: 187 to 190 °C (dec.)
SMILES: CC(=O)NC[C@H]1CN(c2ccc(/C=C(\Br)c3ccc(C(C)=O)s3)c(F)c2)C(=O)O1
